Patent US9850283B2, “Macrocyclic inhibitors of the PD-1/PD-L1 and CD80(B7-1)/PD-L1 protein/protein interactions” (BRISTOL-MYERS SQUIBB COMPANY, priority 2013, dated 2017)
Positions of bridges follow the written chain, without caps; N, C: chain ends. Non-standard residues stand in square brackets, D forms with d. Residues, ends and D or L forms follow the SMILES beside them. ξ: configuration not given here. Phe(3,4-(OMe)2) = COc1ccc(C[C@H](N)C(=O)O)cc1OC; Phe(4-CH2NH2) = NCc1ccc(C[C@H](N)C(=O)O)cc1; Phe(4-F) = N[C@@H](Cc1ccc(F)cc1)C(=O)O; 1Nal = N[C@@H](Cc1cccc2ccccc12)C(=O)O; ξPhe(βξ-Me) = CC(c1ccccc1)C(N)C(=O)O; NMeF = CN[C@@H](Cc1ccccc1)C(=O)O; NMeNle = CCCC[C@H](NC)C(=O)O; Sar = CNCC(=O)O

Legend:
[1] = biological target: T1, Human PD-L1/PD-1 (Homo sapiens, UniProt Q9NZQ7); test: HTRF PD-1-Ig/PD-L1-His binding assay (human PD-L1); settings: cluster symbol; read-out: HTRF IC50 cluster
T1 construct: made in house; host or cells: HEK293T
How it was run: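 The time-resolved fluorescence signal comes from Eu-cryptate anti-Ig (1 nM) and APC anti-His (20 nM) antibodies bound to a PD-1-Ig/PD-L1-His complex. Both partners lack transmembrane regions.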

[2] = biological target: T2, LK35.2-hPD-L1 cells / PE-labeled PD-1-Ig (Homo sapiens, UniProt Q9NZQ7); test: LK35.2-hPD-L1 cell binding high-content screening assay; assay type: cell-based; settings: cell binding assay, cell line not given; cluster symbol; read-out: CBA IC50 cluster
T2 construct: expressed in transfected cells; host or cells: LK35.2 mouse B cell line
How it was run: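 Compound effect on PD-1/PD-L1 binding is measured by imaging cell-associated phycoerythrin signal. Human PD-1-Ig (PE on Ig tag, 1 nM final) is applied with compound to a murine B cell line overexpressing human PD-L1 for 1 h at 37 °C in serum-containing RPMI.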

T1 sequence (Q9NZQ7 with tags, fused parts or gaps): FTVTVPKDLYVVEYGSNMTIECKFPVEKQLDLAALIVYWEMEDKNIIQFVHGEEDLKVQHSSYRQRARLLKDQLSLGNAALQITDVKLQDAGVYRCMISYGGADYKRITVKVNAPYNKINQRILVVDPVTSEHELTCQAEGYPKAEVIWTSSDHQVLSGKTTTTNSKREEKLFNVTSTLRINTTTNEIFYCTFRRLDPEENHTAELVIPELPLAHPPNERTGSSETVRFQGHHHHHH
T2 sequence (Q9NZQ7 19-290): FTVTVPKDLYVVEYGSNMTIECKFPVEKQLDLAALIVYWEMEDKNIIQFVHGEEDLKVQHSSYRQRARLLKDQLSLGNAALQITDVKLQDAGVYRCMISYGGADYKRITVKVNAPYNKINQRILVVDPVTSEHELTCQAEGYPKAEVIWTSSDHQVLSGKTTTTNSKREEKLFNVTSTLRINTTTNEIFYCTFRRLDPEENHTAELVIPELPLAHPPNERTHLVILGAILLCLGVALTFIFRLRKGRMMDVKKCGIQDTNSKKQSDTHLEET

| SMILES | IC50 [1] | IC50 [2] |
| --- | --- | --- |
| CCCC[C@H]1C(=O)N(C)CC(=O)N[C@@H](CC(=O)O)C(=O)N[C@@H](C(C)C)C(=O)N(C)[C@@H](Cc2ccccc2)C(=O)N[C@@H](Cc2ccc(O)cc2)C(=O)N(C)[C@@H](CCC(=O)O)C(=O)N[C@@H](Cc2c[nH]c3ccccc23)C(=O)N[C@@H](Cc2ccc(O)cc2)C(=O)N[C@@H](CC(C)C)C(=O)N[C@H](C(=O)NCC(N)=O)CSCC(=O)N[C@@H](Cc2ccccc2)C(=O)N(C)[C@@H](Cc2ccccc2)C(=O)N1C [Example 3512] (HELM PEPTIDE1{[O=C(C[*:3])[*:2]].F.[meF].[CCCC[C@@H](C(=O)[*:2])N(C)[*:1]].[Sar].D.V.[meF].Y.[meE].W.Y.L.C.G.[am]}$PEPTIDE1,PEPTIDE1,1:R3-14:R3$$$V2.0) | 0.385 to 6.74 nM | 4.78 to 72.9 nM |
| CCCC[C@H]1C(=O)N(C)CC(=O)N[C@@H](CC(=O)O)C(=O)N[C@@H](C(C)C)C(=O)N(C)[C@@H](Cc2ccccc2)C(=O)N[C@@H](Cc2ccc(O)cc2)C(=O)N(C)CC(=O)N[C@@H](Cc2ccc(CN)cc2)C(=O)N[C@@H](Cc2ccc(O)cc2)C(=O)N[C@@H](CC(C)C)C(=O)N[C@H](C(=O)NCC(N)=O)CSCC(=O)N[C@@H](Cc2ccccc2)C(=O)N(C)[C@@H](Cc2ccccc2)C(=O)N1C [Example 3513] ({CH2CO}-F[NMeF][NMeNle][Sar]DV[NMeF]Y[Sar][Phe(4-CH2NH2)]YLCG-NH2; thioether N-13) | > 30.5 nM | > 74.3 nM |
| CCCC[C@H]1C(=O)N(C)CC(=O)N[C@@H](CC(=O)O)C(=O)N[C@@H](C(C)C)C(=O)N(C)[C@@H](Cc2ccccc2)C(=O)N[C@@H](Cc2ccc(O)cc2)C(=O)N(C)CC(=O)N[C@@H](Cc2c[nH]c3ccccc23)C(=O)N[C@@H](Cc2ccc(CN)cc2)C(=O)N[C@@H](CC(C)C)C(=O)N[C@H](C(=O)NCC(N)=O)CSCC(=O)N[C@@H](Cc2ccccc2)C(=O)N(C)[C@@H](Cc2ccccc2)C(=O)N1C [Example 3514] ({CH2CO}-F[NMeF][NMeNle][Sar]DV[NMeF]Y[Sar]W[Phe(4-CH2NH2)]LCG-NH2; thioether N-13) | 6.76 to 30.3 nM | 4.78 to 72.9 nM |
| CCCC[C@H]1C(=O)N(C)CC(=O)N[C@@H](CC(=O)O)C(=O)N[C@@H](C(C)C)C(=O)N(C)[C@@H](Cc2ccccc2)C(=O)N[C@@H](Cc2ccc(O)cc2)C(=O)N(C)CC(=O)N[C@@H](Cc2cccc3ccccc23)C(=O)N[C@@H](Cc2ccc(O)cc2)C(=O)N[C@@H](CC(C)C)C(=O)N[C@H](C(=O)NCC(N)=O)CSCC(=O)N[C@@H](Cc2ccccc2)C(=O)N(C)[C@@H](Cc2ccccc2)C(=O)N1C [Example 3515] ({CH2CO}-F[NMeF][NMeNle][Sar]DV[NMeF]Y[Sar][1Nal]YLCG-NH2; thioether N-13) | 6.76 to 30.3 nM | 4.78 to 72.9 nM |
| CCCC[C@H]1C(=O)N(C)CC(=O)N[C@@H](CC(=O)O)C(=O)N[C@@H](C(C)C)C(=O)N(C)[C@@H](Cc2ccccc2)C(=O)N[C@@H](Cc2ccc(O)cc2)C(=O)N(C)CC(=O)N[C@@H](Cc2c[nH]c3ccccc23)C(=O)N[C@@H](Cc2ccc(O)cc2)C(=O)N[C@@H](CC(C)C)C(=O)N[C@H](C(=O)NCC(N)=O)CSCC(=O)NC(C(C)c2ccccc2)C(=O)N(C)[C@@H](Cc2ccccc2)C(=O)N1C (stereo partly drawn) [Example 3516] ({CH2CO}-[ξPhe(βξ-Me)][NMeF][NMeNle][Sar]DV[NMeF]Y[Sar]WYLCG-NH2; thioether N-13) | > 30.5 nM | > 74.3 nM |
| CCCC[C@H]1C(=O)N(C)CC(=O)N[C@@H](CC(=O)O)C(=O)N[C@@H](C(C)C)C(=O)N(C)[C@@H](Cc2ccccc2)C(=O)N[C@@H](Cc2ccc(O)cc2)C(=O)N(C)CC(=O)N[C@@H](Cc2c[nH]c3ccccc23)C(=O)N[C@@H](Cc2ccc(O)cc2)C(=O)N[C@@H](CC(C)C)C(=O)N[C@H](C(=O)NCC(=O)O)CSCC(=O)N[C@@H](Cc2ccccc2)C(=O)N(C)[C@@H](Cc2ccccc2)C(=O)N1C [Example 3517] (HELM PEPTIDE1{[O=C(C[*:3])[*:2]].F.[meF].[CCCC[C@@H](C(=O)[*:2])N(C)[*:1]].[Sar].D.V.[meF].Y.[Sar].W.Y.L.C.G}$PEPTIDE1,PEPTIDE1,1:R3-14:R3$$$V2.0) | > 30.5 nM | > 74.3 nM |

Continued, values first:

| IC50 [1] | IC50 [2] | SMILES |
| --- | --- | --- |
| 6.76 to 30.3 nM | 4.78 to 72.9 nM | CCCC[C@H]1C(=O)N(C)CC(=O)N[C@@H](CC(=O)O)C(=O)N[C@@H](C(C)C)C(=O)N(C)[C@@H](Cc2ccccc2)C(=O)N[C@@H](Cc2ccc(O)cc2)C(=O)N(C)CC(=O)N[C@@H](Cc2c[nH]c3ccccc23)C(=O)N[C@@H](Cc2ccc(O)cc2)C(=O)N[C@@H](Cc2ccc(O)cc2)C(=O)N[C@H](C(=O)NCC(N)=O)CSCC(=O)N[C@@H](Cc2ccccc2)C(=O)N(C)[C@@H](Cc2ccccc2)C(=O)N1C [Example 3519] (HELM PEPTIDE1{[O=C(C[*:3])[*:2]].F.[meF].[CCCC[C@@H](C(=O)[*:2])N(C)[*:1]].[Sar].D.V.[meF].Y.[Sar].W.Y.Y.C.G.[am]}$PEPTIDE1,PEPTIDE1,1:R3-14:R3$$$V2.0) |
| 6.76 to 30.3 nM | 0.158 to 4.71 nM | CCCC[C@H]1C(=O)N(C)CC(=O)N[C@@H](CC(=O)O)C(=O)N[C@@H](C(C)C)C(=O)N(C)[C@@H](Cc2ccccc2)C(=O)N[C@@H](Cc2ccc(O)cc2)C(=O)N(C)CC(=O)N[C@@H](Cc2c[nH]c3ccccc23)C(=O)N[C@@H](Cc2ccc(O)cc2)C(=O)N[C@@H](CC(C)C)C(=O)N[C@H](C(=O)NCC(N)=O)CSCC(=O)N[C@@H](Cc2ccc(F)cc2)C(=O)N(C)[C@@H](Cc2ccccc2)C(=O)N1C [Example 3520] ({CH2CO}-[Phe(4-F)][NMeF][NMeNle][Sar]DV[NMeF]Y[Sar]WYLCG-NH2; thioether N-13) |
| > 30.5 nM | > 74.3 nM | CCCC[C@H]1C(=O)N(C)CC(=O)N[C@@H](CC(=O)O)C(=O)N[C@@H](C(C)C)C(=O)N[C@@H](Cc2ccc(CN)cc2)C(=O)N[C@@H](Cc2ccc(O)cc2)C(=O)N(C)CC(=O)N[C@@H](Cc2c[nH]c3ccccc23)C(=O)N[C@@H](Cc2ccc(O)cc2)C(=O)N[C@@H](CC(C)C)C(=O)N[C@H](C(=O)NCC(N)=O)CSCC(=O)N[C@@H](Cc2ccccc2)C(=O)N(C)[C@@H](Cc2ccccc2)C(=O)N1C [Example 3523] ({CH2CO}-F[NMeF][NMeNle][Sar]DV[Phe(4-CH2NH2)]Y[Sar]WYLCG-NH2; thioether N-13) |
| 6.76 to 30.3 nM | 0.158 to 4.71 nM | CCCC[C@H]1C(=O)N(C)CC(=O)N[C@@H](CC(=O)O)C(=O)N[C@@H](C(C)C)C(=O)N(C)[C@@H](Cc2ccccc2)C(=O)N[C@@H](Cc2ccc(CN)cc2)C(=O)N(C)CC(=O)N[C@@H](Cc2c[nH]c3ccccc23)C(=O)N[C@@H](Cc2ccc(O)cc2)C(=O)N[C@@H](CC(C)C)C(=O)N[C@H](C(=O)NCC(N)=O)CSCC(=O)N[C@@H](Cc2ccccc2)C(=O)N(C)[C@@H](Cc2ccccc2)C(=O)N1C [Example 3524] ({CH2CO}-F[NMeF][NMeNle][Sar]DV[NMeF][Phe(4-CH2NH2)][Sar]WYLCG-NH2; thioether N-13) |
| > 30.5 nM | > 74.3 nM | CCCC[C@H]1C(=O)N(C)CC(=O)N[C@@H](CC(=O)O)C(=O)N[C@@H](CCC)C(=O)N(C)[C@@H](Cc2ccccc2)C(=O)N[C@@H](Cc2ccc(O)cc2)C(=O)N(C)CC(=O)N[C@@H](Cc2c[nH]c3ccccc23)C(=O)N[C@@H](Cc2ccc(O)cc2)C(=O)N[C@@H](CC(C)C)C(=O)N[C@H](C(=O)NCC(N)=O)CSCC(=O)N[C@@H](Cc2ccccc2)C(=O)N(C)[C@@H](Cc2ccccc2)C(=O)N1C [Example 3525] (HELM PEPTIDE1{[O=C(C[*:3])[*:2]].F.[meF].[CCCC[C@@H](C(=O)[*:2])N(C)[*:1]].[Sar].D.[Nva].[meF].Y.[Sar].W.Y.L.C.G.[am]}$PEPTIDE1,PEPTIDE1,1:R3-14:R3$$$V2.0) |
| 6.76 to 30.3 nM | 4.78 to 72.9 nM | CCCC[C@H]1C(=O)N[C@H](CCC(=O)O)C(=O)N[C@@H](CC(=O)O)C(=O)N[C@@H](C(C)C)C(=O)N(C)[C@@H](Cc2ccccc2)C(=O)N[C@@H](Cc2ccc(O)cc2)C(=O)N(C)CC(=O)N[C@@H](Cc2c[nH]c3ccccc23)C(=O)N[C@@H](Cc2ccc(O)cc2)C(=O)N[C@@H](CC(C)C)C(=O)N[C@H](C(=O)NCC(N)=O)CSCC(=O)N[C@@H](Cc2ccccc2)C(=O)N(C)[C@@H](Cc2ccccc2)C(=O)N1C [Example 3527] (HELM PEPTIDE1{[O=C(C[*:3])[*:2]].F.[meF].[CCCC[C@@H](C(=O)[*:2])N(C)[*:1]].[dE].D.V.[meF].Y.[Sar].W.Y.L.C.G.[am]}$PEPTIDE1,PEPTIDE1,1:R3-14:R3$$$V2.0) |
| > 30.5 nM | 4.78 to 72.9 nM | CCCC[C@H]1C(=O)N(C)CC(=O)N[C@@H](CC(=O)O)C(=O)N[C@@H](CC(C)C)C(=O)N(C)[C@@H](Cc2ccccc2)C(=O)N[C@@H](Cc2ccc(O)cc2)C(=O)N(C)CC(=O)N[C@@H](Cc2c[nH]c3ccccc23)C(=O)N[C@@H](Cc2ccc(O)cc2)C(=O)N[C@@H](CC(C)C)C(=O)N[C@H](C(=O)NCC(N)=O)CSCC(=O)N[C@@H](Cc2ccccc2)C(=O)N(C)[C@@H](Cc2ccccc2)C(=O)N1C [Example 3529] (HELM PEPTIDE1{[O=C(C[*:3])[*:2]].F.[meF].[CCCC[C@@H](C(=O)[*:2])N(C)[*:1]].[Sar].D.L.[meF].Y.[Sar].W.Y.L.C.G.[am]}$PEPTIDE1,PEPTIDE1,1:R3-14:R3$$$V2.0) |
| 6.76 to 30.3 nM | 4.78 to 72.9 nM | CCCC[C@H]1C(=O)N(C)CC(=O)N[C@@H](CC(=O)O)C(=O)N[C@@H](C(C)C)C(=O)N(C)[C@@H](Cc2ccccc2)C(=O)N[C@@H](Cc2ccc(OC)c(OC)c2)C(=O)N(C)CC(=O)N[C@@H](Cc2c[nH]c3ccccc23)C(=O)N[C@@H](Cc2ccc(O)cc2)C(=O)N[C@@H](CC(C)C)C(=O)N[C@H](C(=O)NCC(N)=O)CSCC(=O)N[C@@H](Cc2ccccc2)C(=O)N(C)[C@@H](Cc2ccccc2)C(=O)N1C [Example 3533] ({CH2CO}-F[NMeF][NMeNle][Sar]DV[NMeF][Phe(3,4-(OMe)2)][Sar]WYLCG-NH2; thioether N-13) |
